The experiment has as its target T1, TLR9 (Homo sapiens, UniProt Q9NR96).
T1 sequence (Q9NR96 26-1032): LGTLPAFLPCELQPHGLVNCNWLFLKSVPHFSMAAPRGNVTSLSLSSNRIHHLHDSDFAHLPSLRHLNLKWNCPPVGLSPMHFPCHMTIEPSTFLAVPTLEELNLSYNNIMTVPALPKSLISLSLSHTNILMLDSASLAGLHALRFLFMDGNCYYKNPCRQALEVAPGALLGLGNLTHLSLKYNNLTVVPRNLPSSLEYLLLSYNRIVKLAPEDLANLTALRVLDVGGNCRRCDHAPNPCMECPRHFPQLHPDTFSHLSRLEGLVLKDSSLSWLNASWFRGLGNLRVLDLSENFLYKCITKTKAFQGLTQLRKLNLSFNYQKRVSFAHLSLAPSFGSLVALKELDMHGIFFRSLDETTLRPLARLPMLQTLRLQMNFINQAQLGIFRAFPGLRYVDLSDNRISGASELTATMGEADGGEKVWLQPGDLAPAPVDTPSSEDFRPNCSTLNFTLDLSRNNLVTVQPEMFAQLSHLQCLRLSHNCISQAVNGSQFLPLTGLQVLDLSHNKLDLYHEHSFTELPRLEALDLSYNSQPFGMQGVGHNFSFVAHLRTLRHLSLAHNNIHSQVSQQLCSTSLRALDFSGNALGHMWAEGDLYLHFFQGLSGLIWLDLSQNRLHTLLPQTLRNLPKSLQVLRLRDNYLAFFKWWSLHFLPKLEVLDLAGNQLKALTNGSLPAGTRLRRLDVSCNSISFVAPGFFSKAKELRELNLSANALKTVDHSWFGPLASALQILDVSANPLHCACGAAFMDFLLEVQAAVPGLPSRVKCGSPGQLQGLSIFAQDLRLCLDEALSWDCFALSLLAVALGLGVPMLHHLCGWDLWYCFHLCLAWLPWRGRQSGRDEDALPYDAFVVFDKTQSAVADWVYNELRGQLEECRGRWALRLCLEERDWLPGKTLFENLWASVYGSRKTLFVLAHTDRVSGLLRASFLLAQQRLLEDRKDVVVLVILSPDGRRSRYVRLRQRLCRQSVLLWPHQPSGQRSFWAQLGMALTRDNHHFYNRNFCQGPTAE
Nature of the experiment: HEK293-Blue-hTLR-9 cells assay (SEAP reporter, ODN2006 stimulation). Also on record: host or cells: HEK293 (HEK-Blue hTLR9). In kind it is cell-based. To be noted: HEK293-Blue-hTLR9 cells, ODN2006, 20 hrs; read-out: HEK/hTLR9 IC50. As to the method: The following tests were carried out in order to determine the activity of the compounds of formula (I) and (Ia) in HEK293-Blue-hTLR-7/8/9 cells assay.
A stable HEK293-Blue-hTLR-9 cell line was purchased from InvivoGen (Cat. #: hkb-htlr9, San Diego, California, USA). These cells were originally designed for studying the stimulation of human TLR9 by monitoring the activation of NF-κB. A SEAP (secreted embryonic alkaline phosphatase) reporter gene was placed under the control of the IFN-β minimal promoter fused to five NF-κB and AP-1-binding sites. The SEAP was induced by activating NF-κB and AP-1 via stimulating HEK-Blue hTLR9 cells with TLR9 ligands. Therefore the reporter expression was declined by TLR9 antagonist under the stimulation of a ligand, such as ODN2006 (Cat. #: tlrl-2006-1, Invivogen, San Diego, California, USA), for incubation of 20 hrs. The cell culture supernatant SEAP reporter activity was determined using QUANTI-Blue™ kit (Cat. #: rep-qb1, Invivogen, San Diego, California, USA) at a wavelength of 640 nm, a detection medium that turns purple or blue in the presence of alkaline phosphatase.
HEK293-Blue-hTLR9 cells were incubated at a density of 250,000-450,000 cells/mL in a volume of 170 μL in a 96-well plate in Dulbecco's Modified Eagle's medium (DMEM) containing 4.5 g/L glucose, 50 U/mL penicillin, […], […], 2 mM L-glutamine, 10% (v/v) heat-inactivated fetal bovine serum with addition of 20 μL test compound in a serial dilution in the presence of final DMSO at 1% and 10 μL of 20 uM ODN2006 in above DMEM, perform incubation under 37° C. in a CO2 incubator for 20 hrs. Then 20 μL of the supernatant from each well was incubated with 180 μL Quanti-blue substrate solution at 37° C. for 2 h and the absorbance was read at 620˜655 nm using a spectrophotometer.
The signaling pathway that TLR9 activation leads to downstream NF-κB activation has been widely accepted, and therefore similar reporter assay was modified for evaluating TLR9 antagonist.
Take `CO[C@H]1CN(c2ccc3c(n2)[C@@H](C)CN(c2cc(C)nc4c2cnn4C)C3)CC[C@@H]1N` [Example 65, (3S,4S)-3-methoxy-1-[(8S)-6-(1,6-dimethylpyrazolo[3,4-b]pyridin-4-yl)-8-methyl-7,8-dihydro-5H-1,6-naphthyridin-2-yl]piperidin-4-amine]: the IC50 worked out at 106 nM.

As for `Cc1cc(N2Cc3ccc(N4CCC5(CCNCC5)CC4)cc3C(C)C2)c2cnn(C)c2n1` (stereo not shown) [Example 5, 3-[2-(1,6-dimethylpyrazolo[3,4-b]pyridin-4-yl)-4-methyl-3,4-dihydro-1H-isoquinolin-6-yl]-3,9-diazaspiro[5.5]undecane], the IC50 was 123 nM.

As to `C[C@H]1CN(c2ccnc3c2cnn3C)Cc2ccc(N3C[C@@H]4CCNC[C@@H]4C3=O)cc21` (single isomer, unassigned) [Example 57], the IC50 is 226 nM.

Regarding `Cc1cc(N2Cc3ccc(N4CCC(O)(CN(C)C)CC4)cc3[C@@H](C)C2)c2cnn(C)c2n1` [Example 14, 4-[(dimethylamino)methyl]-1-[(4R)-2-(1,6-dimethylpyrazolo[3,4-b]pyridin-4-yl)-4-methyl-3,4-dihydro-1H-isoquinolin-6-yl]piperidin-4-ol], the IC50 was determined as 158 nM.

As to `C[C@H]1CN(c2ccnc3c2cnn3C)Cc2ccc(N3C[C@H]4CNCCN4C3=O)cc21` [Example 24, (8aR)-2-[(4R)-4-methyl-2-(1-methylpyrazolo[3,4-b]pyridin-4-yl)-3,4-dihydro-1H-isoquinolin-6-yl]-1,5,6,7,8,8a-hexahydroimidazo[1,5-a]pyrazin-3-one], the IC50 was found to be 311 nM.

`C[C@H]1CN(c2ccnc3c2cnn3C)Cc2ccc(N3CCN(Cc4cn(C)cn4)CC3)cc21` [Example 37, (4R)-4-methyl-6-[4-[(1-methylimidazol-4-yl)methyl]piperazin-1-yl]-2-(1-methylpyrazolo[3,4-b]pyridin-4-yl)-3,4-dihydro-1H-isoquinoline]: the IC50 was 222 nM.

As to `C[C@H]1CN(c2ccnc3c2cnn3C)Cc2ccc(N3CCC(N4CC(N)C4)CC3)cc21` [Example 28, 1-[1-[(4R)-4-methyl-2-(1-methylpyrazolo[3,4-b]pyridin-4-yl)-3,4-dihydro-1H-isoquinolin-6-yl]-4-piperidyl]azetidin-3-amine], the IC50 came to 150 nM.

In the case of `C[C@H]1CN(c2ccnc3c2cnn3C)Cc2ccc(OC[C@H]3CNCCN3C)cc21` [Example 43, (4R)-4-methyl-2-(1-methylpyrazolo[3,4-b]pyridin-4-yl)-6-[[(2R)-1-methylpiperazin-2-yl]methoxy]-3,4-dihydro-1H-isoquinoline], the IC50 is 242 nM.

Regarding `C[C@H]1CN(c2ccnc3c2cnn3C)Cc2ccc(N3CCN(C(=O)C4CCCN4)CC3)cc21` (stereo partly drawn) [Example 8, pyrrolidin-2-yl-[4-[(4R)-4-methyl-2-(1-methylpyrazolo[3,4-b]pyridin-4-yl)-3,4-dihydro-1H-isoquinolin-6-yl]piperazin-1-yl]methanone], the IC50 was 140 nM.

As for `Cc1cc(N2Cc3ccc(N4C[C@@H](N)[C@H](O)C4)cc3[C@@H](C)C2)c2cnn(C)c2n1` [Example 47, trans-4-amino-1-[(4R)-2-(1,6-dimethylpyrazolo[3,4-b]pyridin-4-yl)-4-methyl-3,4-dihydro-1H-isoquinolin-6-yl]pyrrolidin-3-ol], the IC50 amounted to 230 nM.

`C[C@H]1CN(c2ccnc3c2cnn3C)Cc2ccc(N3CCN(C(=O)C4CNCCO4)CC3)cc21` (stereo partly drawn) [Example 12, morpholin-2-yl-[4-[(4R)-4-methyl-2-(1-methylpyrazolo[3,4-b]pyridin-4-yl)-3,4-dihydro-1H-isoquinolin-6-yl]piperazin-1-yl]methanone]: the IC50 came out at 298 nM.

`C[C@H]1CN(c2ccnc3c2cnn3C)Cc2ccc(N3C[C@@H](N)[C@H](O)C3)cc21` [Example 46, trans-4-amino-1-[(4R)-4-methyl-2-(1-methylpyrazolo[3,4-b]pyridin-4-yl)-3,4-dihydro-1H-isoquinolin-6-yl]pyrrolidin-3-ol]: the IC50 stood at 360 nM.

As to `CO[C@@H]1CN(c2cc3c(cn2)CN(c2cc(C)nc4c2cnn4C)C[C@@H]3C)C[C@H]1N` [Example 78, (3R,4R)-4-methoxy-1-[(5R)-7-(1,6-dimethylpyrazolo[3,4-b]pyridin-4-yl)-5-methyl-6,8-dihydro-5H-2,7-naphthyridin-3-yl]pyrrolidin-3-amine], the IC50 was 335 nM.

Consider `Cc1cc(N2Cc3cnc(N4CCNCC4)cc3[C@@H](C)C2)c2cnn(C)c2n1` [Example 74, (4R)-2-(1,6-dimethylpyrazolo[3,4-b]pyridin-4-yl)-4-methyl-6-piperazin-1-yl-3,4-dihydro-1H-2,7-naphthyridine], for which the IC50 worked out at 165 nM.

With `Cc1cc(N2Cc3ccc(N4CCC(N(C)C)CC4)nc3[C@@H](C)C2)c2cnn(C)c2n1` [Example 60, N,N-dimethyl-1-[(8S)-6-(1,6-dimethylpyrazolo[3,4-b]pyridin-4-yl)-8-methyl-7,8-dihydro-5H-1,6-naphthyridin-2-yl]piperidin-4-amine], the IC50 is 104 nM.

`CC1CN(c2ccc3c(c2)[C@@H](C)CN(c2ccnc4c2cnn4C)C3)CCN1` (stereo partly drawn) [Example 15, (4R)-4-methyl-6-(3-methylpiperazin-1-yl)-2-(1-methylpyrazolo[3,4-b]pyridin-4-yl)-3,4-dihydro-1H-isoquinoline]: the IC50 turned out to be 309 nM.

Consider `Cc1cc(N2Cc3cnc(N4CCNC5(CC5)C4)cc3[C@@H](C)C2)c2cnn(C)c2n1` [Example 75, (4R)-6-(4,7-diazaspiro[2.5]octan-7-yl)-2-(1,6-dimethylpyrazolo[3,4-b]pyridin-4-yl)-4-methyl-3,4-dihydro-1H-2,7-naphthyridine], for which the IC50 came to 115 nM.

For the compound `COC[C@H]1CN(c2cc3c(cn2)CN(c2cc(C)nc4c2cnn4C)C[C@@H]3C)CCN1` [Example 81, (4R)-2-(1,6-dimethylpyrazolo[3,4-b]pyridin-4-yl)-4-methyl-6-[(3R)-3-(methoxymethyl)piperazin-1-yl]-3,4-dihydro-1H-2,7-naphthyridine], the IC50 was determined as 218 nM.

Regarding `Cn1ncc2c(N3Cc4ccc(N5CCC6(CCNCC6)CC5)cc4C(C)(C)C3)ccnc21` [Example 6, 3-[4,4-dimethyl-2-(1-methylpyrazolo[3,4-b]pyridin-4-yl)-1,3-dihydroisoquinolin-6-yl]-3,9-diazaspiro[5.5]undecane], the IC50 is 112 nM.

Take `C[C@H]1CN(c2ccnc3c2cnn3C)Cc2ccc(N3C4CCC3CNC4)cc21` [Example 27, (4R)-6-(3,8-diazabicyclo[3.2.1]octan-8-yl)-4-methyl-2-(1-methylpyrazolo[3,4-b]pyridin-4-yl)-3,4-dihydro-1H-isoquinoline]: the IC50 amounted to 185 nM.

For `C[C@H]1CN(c2ccnc3c2cnn3C)Cc2ccc(N3C[C@]4(CCNC4)CC3=O)cc21` (single isomer, unassigned) [Example 54], the IC50 came to 334 nM.

With `C[C@H]1CN(c2ccnc3c2cnn3C)Cc2ccc(N3CCN(C(=O)C4CCNCC4)CC3)cc21` [Example 7, 4-piperidyl-[4-[(4R)-4-methyl-2-(1-methylpyrazolo[3,4-b]pyridin-4-yl)-3,4-dihydro-1H-isoquinolin-6-yl]piperazin-1-yl]methanone], the IC50 worked out at 104 nM.

The values are drawn from patent US20240317735A1, “HYDROISOQUINOLINE OR HYDRONAPHTHYRIDINE COMPOUNDS FOR THE TREATMENT OF AUTOIMMUNE DISEASE” (Hoffmann-La Roche Inc., priority 2020, published 2024).
